Data as given in US20190022117A1, “COMBINATION THERAPY” (NuCana plc, priority 2015, published 2019).
Read-outs that look alike come from different tables or passages of the source.

How the values were obtained:
SKOV3 cells = assay: Sulforhodamine B (SRB) assay, single agent; type: cell-based; conditions: 24 hours exposure, SRB assay on day 4
Procedure: SKOV3 cells were purchased from American Type Culture Collection (ATCC). They were cultured at 37° C. and 5% CO2 in Gibco™ RMPI Medium 1640+GlutaMAX™-I (Life Technologies; 61870-010) with 10% Gibco™ FBS (Life Technologies; 10270-106) and 1% Gibco™ Penicillin-Streptomycin (Life Technologies; Ser. No. 15/140,122), known as complete medium, in a cell culture flask. Cisplatin was purchased from TEVA UK Limited (PL 00289/1146). Fluvastatin and Sulforaphane were both purchased from Merck Millipore Corporation (Catalogue numbers 344096 and 574215 respectively). (S)-NUC-1031 was provided by NuCana® Ltd.
SKOV3 cells were plated at 250 cells in 200 μl per well in the middle 60 wells of Costar® 3596 96-well plates, with the outer 36 wells filled with 200 μl PBS each. The cells were allowed to grow in complete medium for 48 hours before different drug compounds were added in. For single agent, cisplatin, (S)-NUC-1031, fluvastatin and sulforaphane in complete medium at 10 different concentrations were added into the middle 60 wells (Day 0). Each concentration was loaded in sextuplicate. Cells were exposed to the compounds for 24 hours and the compounds were replaced by pure complete medium. The experiment with fluvastatin was repeated with 4-day exposure instead of 24 hours. The plates were fixed with 50 μl 25% TCA solution at 4° C. for 60 minutes on day 4 after the drug compounds were added for Sulforhodamine B assay (see below).
After adding the TCA solution, the plates were washed under running tap water 10 times and were allowed to dry in the oven at 50° C. The cells were then stained with 50 μl SRB dye, and the dye was washed off with 1% glacial acetic acid for 4 times 30 minutes after SRB addition. The plates were then dried in the oven. SRB dye was allowed to dissolve in 150 μl 10 mM Tris buffer solution for 60 minutes on a rocker. The plates were read on Biohit BP800 Microplate Reader (Biohit Healthcare) and the absorbance was measured at 540 nm. […]

[1] = ProGem1 clinical study (NUC-1031 alone), intracellular dFdCTP pharmacokinetics; type: in vivo, human; conditions: ProGem1 (n = 67), NUC-1031 as a single agent; no normalisation
From the text: (§1) ProGem1 was a first-time-in-human (FTIH), phase I, open label, two stage study to investigate the safety, tolerability, clinical efficacy, pharmacokinetics (PK) and pharmacodynamics (PD) of NUC-1031 given in two parallel dosing schedules in subjects with advanced solid malignancies (EudraCT Number: 2011-005232-26). Subjects had the following tumour types at study entry: colorectal cancer (7 subjects), unknown primary (3), ovarian cancer (12), breast cancer (4), pancreatic cancer (9), cholangiocarcinoma (7), endometrial cancer (3), cervical cancer (2), lung cancer (7), mesothelioma (3), oesophageal cancer (3), cancer of the fallopian tube (1), trophoblast (1), renal cancer (1), gastric cancer (1), anal cancer (1), cancer of the thymus (1) and osteosarcoma (1).

[2] = ProGem1 clinical study (NUC-1031 alone), plasma pharmacokinetics; type: in vivo, human
From the text: as §1

HT1376 = assay: CellTiter-Glo cytotoxicity assay, single agents (Stage 1); type: cell-based; conditions: for IC50: Homo sapiens, HT-1376, CTG assay 72 h
Procedure: (§2) A2780, SK-OV-3, OVCAR-3, NCI-H460, NCI-H1975, NCI-H2122, 5637 and HT1376 were cultured in RPMI Medium 1640 (Invitrogen-22400105) supplemented with 10% fetal bovine serum (FBS; Invitrogen-10099141). All the cell lines were maintained in a humidified incubator at 37° C. with 5% CO2. Cell culture media and supplements were purchased from Invitrogen, and tissue culture flasks were purchased from Corning, 96-well plates and 384-well plates were purchased from Greiner. CellTiter-Glo Luminescent Cell Viability Assay kits were purchased from Promega (Promega-G7573), cells counter Vi-Cell was purchased from Beckman, detection instrument Envision was purchased from PerkinElmer.
(§3) Paclitaxcel (used as a reference) and cisplatin were purchased from SELLECK, and they were of highest purity available. All compounds attained solubility in DMSO and when diluted into culture media. DMSO, compounds solutions and culture media were warmed to 37° C. for the solution preparation and dilutions.
(§4) Eight cell lines were allowed to adhere to 96-well plates overnight (100 μL/well), for drug treatments with 3.16 fold dilution, 9 dose points, triplicates or vehicle control, compound stock solutions were prepared in DMSO and added to the wells to give the indicated final drug concentrations. Final DMSO concentration was 0.5%. Cellular ATP concentrations were assessed by using the CellTiter-Glo Cell Viability Assay as per the manufacturer's instructions 72 h after drug addition.
(§5) In Stage 1 the IC50 (using 5 or more concentrations) of each individual compound (cisplatin, gemcitabine and NUC-1031) in the relevant cell lines was determined.

SK-OV3 = assay: as above; type: cell-based; conditions: for IC50: Homo sapiens, SK-OV-3, CTG assay 72 h
Procedure: as §2, §3, §4, §5

OVCAR-3 = assay: as above; type: cell-based; conditions: CTG assay 72 h; for IC50: Homo sapiens
Procedure: as §2, §3, §4, §5

A2780 = assay: as above; type: cell-based; conditions: CTG assay 72 h; for IC50: Homo sapiens
Procedure: as §2, §3, §4, §5

NCI-H1975 = assay: as above; type: cell-based; conditions: CTG assay 72 h; for IC50: Homo sapiens
Procedure: as §2, §3, §4, §5

NCI-H460 = assay: as above; type: cell-based; conditions: CTG assay 72 h; for IC50: Homo sapiens
Procedure: as §2, §3, §4, §5

5637 = assay: as above; type: cell-based; conditions: CTG assay 72 h
Procedure: as §2, §3, §4, §5

[3] = absolute IC50, read-out: Ab IC50

C[C@H](NP(=O)(OC[C@H]1O[C@@H](n2ccc(N)nc2=O)C(F)(F)[C@H]1O)Oc1ccccc1)C(=O)OCc1ccccc1 (stereo partly drawn) [NUC-1031, 2′-Deoxy-2′,2′-difluoro-D-cytidine-5′-O-[phenyl (benzoxy-L-alaninyl)] phosphate]
IC50 (SKOV3 cells): could not be calculated due to unobservable inhibitory effects | Mean AUC0-24, intracellular dFdCTP [1]: 1379.0 pmol/million cells · hr | Mean Cmax, intracellular dFdCTP [1]: 391.8 pmol/million cells | levels of the metabolite dFdU relative to gemcitabine ([2]; ProGem1, compared with levels normally associated with gemcitabine): less than half | clearance ([2]; human, plasma, ProGem1 (n = 67), NUC-1031 as a single agent): 86.7 mL/min | Cmax ([2]; human, plasma, ProGem1 (n = 67), NUC-1031 as a single agent, no normalisation): 66.5 µg/mL | AUC(0-t) ([2]; human, plasma, ProGem1 (n = 67), NUC-1031 as a single agent, no normalisation, read-out: Mean AUC0-24, plasma NUC-1031): 66.5 µg·h/mL | half-life ([2]; human, plasma, ProGem1 (n = 67), NUC-1031 as a single agent, read-out: Mean terminal t1/2, plasma NUC-1031 (converted)): 54 min | Tmax ([2]; human, plasma, ProGem1 (n = 67), NUC-1031 as a single agent, read-out: Median Tmax, plasma NUC-1031): 30 min | Max Inhibition_% (HT1376; CTG assay 72 h): −2.54% | IC50 (HT1376; [3]): > 1.98 µM | IC50 (HT1376; relative IC50, read-out: IC50): > 1.98 µM | Max Inhibition_% (SK-OV3; CTG assay 72 h): 61.59% | IC50 (SK-OV3; [3]): 0.07 µM | IC50 (SK-OV3; relative IC50, read-out: IC50): 0.06 µM | Max Inhibition_% (OVCAR-3): 11.76% | IC50 (OVCAR-3; [3]): > 1.98 µM | IC50 (OVCAR-3; relative IC50, read-out: IC50): 0.2 µM | Max Inhibition_% (A2780): 79.15% | IC50 (A2780; [3]): 0.025 µM | IC50 (A2780; relative IC50, read-out: IC50): 0.016 µM | Max Inhibition_% (NCI-H1975): 37.91% | IC50 (NCI-H1975; [3]): > 1.98 µM | IC50 (NCI-H1975; relative IC50, read-out: IC50): 0.37 µM | Max Inhibition_% (NCI-H460): 91.98% | IC50 (NCI-H460; [3]): 0.04 µM | IC50 (NCI-H460; relative IC50, read-out: IC50): 0.04 µM | Max Inhibition_% 5637: 77.88% | IC50 5637; [3]: 0.2 µM | IC50 (5637; relative IC50, read-out: IC50): 0.12 µM
